Where only a bound is given, the exact number is not on record here.

Data set [1] is described as follows: Liver microsome stability. Format: in vitro ADME, human. To be noted: amount of substrate remaining; compound 1 μM, 30 minutes, 37° C., NADPH. As for the experimental part:
(§1) The stability of liver microsomes due to the compounds prepared according to Examples 1 to 175 was confirmed. Specifically, four types of liver microsomes (human, dog, rat, and mouse, each 0.25 mg/mL), a 0.1 M phosphate buffer solution (pH 7.4), and each of the compounds at a concentration of 1 μM were mixed and pre-cultured at 37° C. for 5 minutes and further cultured at 37° C. for 30 minutes together with an NADPH generation system solution added thereto. Thereafter, the reaction was terminated by adding an acetonitrile solution containing an internal standard material (chloropropamide) and centrifuged for 5 minutes (14,000 rpm, 4° C.), and then a supernatant was injected into an LC-MS/MS system for analysis of substrate drugs to thereby evaluate metabolic stability due to 8 types of compounds.
(§2) The amount of the substrate remaining after the reaction was analyzed using the Shimadzu Nexera XR system and TSQ Vantage (Thermo). In an HPLC column, Kinetex XB-C18 (2.1 mm×100 mm, particle size of 2.6 μm; Phenomenex, USA) was used, and mobile phases were (A) distilled water containing 0.1% formic acid and (B) acetonitrile containing 0.1% formic acid. Analyst software (version 1.6.3) and Xcalibur (version 1.6.1) were used for data analysis.
On the technique in general: Liver microsomes are vesicles of endoplasmic reticulum, rich in cytochrome P450 enzymes.

The nature of data set [2]: Liver microsome stability. Conditions: amount of substrate remaining; compound 1 μM, 30 minutes, 37° C., NADPH. Format: in vitro ADME, rat. As for the experimental part:
as §1, §2

Data set [3] can be described thus: Liver microsome stability. Format: in vitro ADME, mouse. Conditions: amount of substrate remaining; compound 1 μM, 30 minutes, 37° C., NADPH. The method, then:
as §1, §2

Another data set addresses T1, tau protein (Homo sapiens, UniProt P10636).
T1 construct: fused on or other part: Split fluorescent-protein halves for BiFC are fused to tau; In the published tau-BiFC line these are Venus VN173 and VC155
The experiment in a line: Tau-BiFC cell model: inhibition of tau protein aggregation. Format: cell-based. To be noted: for remaining activity at 3 µM / remaining activity at 10 µM: 48 h, Forskolin-only group = 100% tau protein-aggregated state; for remaining activity at 3 µM: compounds marked *: measured at 3 μM, read-out: Response; for IC50: Tau BiFC in cells, with Forskolin 30 μM, 48 hours; for remaining activity at 10 µM: compound 10 μM, BiFC fluorescence, read-out: Response (% @10 μM). Summed up: (§3)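 Tau-BiFC cells were exposed for 48 h to compound (1, 3, 10 μM for screening; 0.03–30 μM for dose-response) plus 30 μM Forskolin to induce aggregation. BiFC fluorescence was normalised to Forskolin-only minus untreated controls, with IC50 from nonlinear regression. Viability was Hoechst-stained nuclei counts relative to Forskolin-only wells.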

The next data set deals with Tau-BiFC cells. Nature of the data set: Cell viability (cytotoxicity) in tau-BiFC cells, count of stained nuclei. Format: cell-based. To be noted: Forskolin-only group = 100% cell viability; for Cell viability: compounds marked *: measured at 3 μM; for Cell viability (% @10 μM): compound 10 μM. Summed up:
as §3

T1 sequence (P10636 2-441 isoform P10636-8 limits assumed): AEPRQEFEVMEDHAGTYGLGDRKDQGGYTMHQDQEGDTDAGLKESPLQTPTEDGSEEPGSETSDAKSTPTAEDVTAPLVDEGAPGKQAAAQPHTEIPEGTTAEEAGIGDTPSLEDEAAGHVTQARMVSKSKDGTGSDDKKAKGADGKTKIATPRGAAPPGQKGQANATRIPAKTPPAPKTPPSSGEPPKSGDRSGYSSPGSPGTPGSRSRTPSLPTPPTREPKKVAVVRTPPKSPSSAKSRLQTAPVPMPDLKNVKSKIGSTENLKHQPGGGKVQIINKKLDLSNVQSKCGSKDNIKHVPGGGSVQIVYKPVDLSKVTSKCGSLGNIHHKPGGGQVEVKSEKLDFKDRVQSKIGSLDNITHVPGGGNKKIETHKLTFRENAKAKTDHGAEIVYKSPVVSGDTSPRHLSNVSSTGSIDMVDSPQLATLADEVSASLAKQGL

For `COc1cc(NN=C(C#N)C#N)ccc1OCc1cccs1` [Compound 172, (3-methoxy-4-(thiophen-2-ylmethoxy)phenyl)carbonohydrazonoyl dicyanide], the “Human (%)” value in data set [1] amounted to 73.3%. In addition, the “Rat (%)” value in data set [2] is 65.3%. Moreover, the “Mouse (%)” value in data set [3] was 57.3%.

Regarding `Cc1cc(NN=C(C#N)C#N)ccc1OCc1ccc(C(F)(F)F)cc1` [Compound 148, (3-methyl-4-(4-(trifluoromethyl)benzyloxy)phenyl)carbonohydrazonoyl dicyanide], at tau protein, the remaining activity at 3 µM stood at 22%. For the same compound, the Cell viability with Tau-BiFC cells is listed as 114%. Further, the “Human (%)” value in data set [1] is recorded as 77.4%. The “Rat (%)” value in data set [2] is 86.3%. The “Mouse (%)” value in data set [3] is over 100%.

`Cc1cc(NN=C(C#N)C#N)ccc1OCc1cc2ccccc2s1` [Compound 150, (4-(benzo[b]thiophen-2-ylmethoxy)-3-methylphenyl)carbonohydrazonoyl dicyanide]: the remaining activity at 3 µM on tau protein was 11%. The Cell viability in the data set with Tau-BiFC cells is on record as 118%. For the same compound, the “Human (%)” value in data set [1] came out at 80.7%. In data set [2], the “Rat (%)” value was 78.7%. Besides, in data set [3], the “Mouse (%)” value came to 99.5%.

`COc1cc(NN=C(C#N)C#N)ccc1OCc1ccc(C(F)(F)F)cc1` [Compound 155, (3-methoxy-4-(4-(trifluoromethyl)benzyloxy)phenyl)carbonohydrazonoyl dicyanide]: the remaining activity at 3 µM at tau protein is -43%. In addition, the Cell viability with Tau-BiFC cells is 80%. The “Human (%)” value in data set [1] is given as 95.4%. For the same compound, the “Rat (%)” value in data set [2] is reported as 82%. In data set [3], the “Mouse (%)” value is given as 90.8%.

As for `COc1cc(NN=C(C#N)C#N)ccc1OCc1cnn(C)c1` [Compound 174, (3-methoxy-4-((1-methyl-1H-pyrazol-4-yl)methoxy)phenyl)carbonohydrazonoyl dicyanide], the “Human (%)” value in data set [1] worked out at 72%. Further, the “Rat (%)” value in data set [2] came out at 54.3%. In addition, the “Mouse (%)” value in data set [3] is over 100%.

Take `COc1cc(NN=C(C#N)C#N)ccc1OCc1cc[nH]n1` [Compound 168, (4-((1H-pyrazol-3-yl)methoxy)-3-methoxyphenyl)carbonohydrazonoyl dicyanide]: at tau protein, the remaining activity at 3 µM was -17% and half-maximal inhibition (IC50) required 0.132 µM. The Cell viability with Tau-BiFC cells was 123%. The “Human (%)” value in data set [1] stood at 54.8%. Further, the “Rat (%)” value in data set [2] came to 44%. Also, the “Mouse (%)” value in data set [3] is 77.8%.

Regarding `COc1cc(NN=C(C#N)C#N)ccc1OCc1nc2ccccc2[nH]1` [Compound 163, (4-((1H-benzo[d]imidazol-2-yl)methoxy)-3-methoxyphenyl)carbonohydrazonoyl dicyanide], at tau protein, the remaining activity at 3 µM was found to be 91%. Besides, the Cell viability in the data set on Tau-BiFC cells was 106%. In addition, the “Human (%)” value in data set [1] was 86.9%. Besides, in data set [2], the “Rat (%)” value came to 71.3%. The “Mouse (%)” value in data set [3] stood at 59.5%.

Turning to `Cc1cc(NN=C(C#N)C#N)ccc1OCc1cccnn1` [Compound 149, (3-methyl-4-(pyridazin-3-ylmethoxy)phenyl)carbonohydrazonoyl dicyanide], on tau protein, the remaining activity at 3 µM was -8% and the IC50 (as a rule, the concentration that inhibits the measured activity by half) turned out to be 0.185 µM. Besides, the Cell viability with Tau-BiFC cells was found to be 124%. The “Human (%)” value in data set [1] is 93.7%. The “Rat (%)” value in data set [2] worked out at 82.2%. In data set [3], the “Mouse (%)” value is on record as 87.9%.

As to `COc1cc(NN=C(C#N)C#N)ccc1OCc1csc(C)n1` [Compound 171, (3-methoxy-4-((2-methylthiazol-4-yl)methoxy)phenyl)carbonohydrazonoyl dicyanide], the “Human (%)” value in data set [1] was 79.2%. Besides, the “Rat (%)” value in data set [2] is reported as 80.3%. Besides, the “Mouse (%)” value in data set [3] came to 70.3%.

In the case of `N#CC(C#N)=NNc1ccc(NC(=O)c2nc3ccccc3s2)nc1` [Compound 31, (6-(benzo[d]thiazole-2-carboxamido)pyridin-3-yl)carbonohydrazonoyl dicyanide], on tau protein, the remaining activity at 10 µM came to 0% and half-maximal inhibition (IC50) required 0.54 µM. Moreover, in the data set on Tau-BiFC cells, the “Cell viability (% @10 μM)” value is reported as 114.3%. Also, the “Human (%)” value in data set [1] stood at 28.7%.

For the compound `N#CC(C#N)=NNc1ccc(OCCc2ccc(C(F)(F)F)cc2)nc1` [Compound 103, (6-(4-(trifluoromethyl)phenethoxy)pyridin-3-yl)carbonohydrazonoyl dicyanide], on tau protein, the remaining activity at 10 µM is 0% and it took 2.35 µM to reach half-maximal inhibition (IC50). For the same compound, the “Cell viability (% @10 μM)” value in the data set on Tau-BiFC cells worked out at 37.9%.

Turning to `COc1ccc(NS(=O)(=O)c2ccc(NN=C(C#N)C#N)cc2)cc1` [Compound 66, (4-(N-(4-methoxyphenyl)sulfamoyl)phenyl)carbonohydrazonoyl dicyanide], the remaining activity at 10 µM at tau protein turned out to be 61.2%. In addition, the “Cell viability (% @10 μM)” value in the data set on Tau-BiFC cells came to 123.9%.

In the case of `COc1ccc(NC(=O)c2ccc(NN=C(C#N)C#N)cn2)cc1` [Compound 35, (6-(4-methoxyphenylcarbamoyl)pyridin-3-yl)carbonohydrazonoyl dicyanide], at tau protein, the remaining activity at 10 µM is 34.2%. Further, the “Cell viability (% @10 μM)” value in the data set on Tau-BiFC cells is 97.9%.

In the case of `Cc1cc(NN=C(C#N)C#N)ccc1NC(=O)c1cscn1` [Compound 111, (3-methyl-4-(thiazole-4-carboxamido)phenyl)carbonohydrazonoyl dicyanide], on tau protein, the remaining activity at 10 µM is 0% and half-maximal inhibition (IC50) required 0.5 µM. Besides, the “Cell viability (% @10 μM)” value in the data set on Tau-BiFC cells was determined as 136.4%.

Take `Cc1cc(NN=C(C#N)C#N)ccc1Oc1cccnc1` [Compound 74, (3-methyl-4-(pyridin-3-yloxy)phenyl)carbonohydrazonoyl dicyanide]: on tau protein, the remaining activity at 10 µM is 0% and the IC50 is 0.44 µM. Also, in the data set with Tau-BiFC cells, the “Cell viability (% @10 μM)” value amounted to 92.7%.

For the compound `N#CC(C#N)=NNc1ccc(NC(=O)c2ccccc2C(F)(F)F)nc1` [Compound 28, (6-(2-(trifluoromethyl)benzamido)pyridin-3-yl)carbonohydrazonoyl dicyanide], on tau protein, the remaining activity at 10 µM was found to be 0% and the IC50 was determined as 0.54 µM. For the same compound, the “Cell viability (% @10 μM)” value in the data set with Tau-BiFC cells is 125.8%.

For `COc1cc(NN=C(C#N)C#N)ccc1NC(=O)c1cnc(C)cn1` [Compound 10, (3-methoxy-4-(5-methylpyrazine-2-carboxamido)phenyl)carbonohydrazonoyl dicyanide], on tau protein, the remaining activity at 10 µM was 0%. In addition, in the data set on Tau-BiFC cells, the “Cell viability (% @10 μM)” value is recorded as 21.7%.

Take `CN(N=C(C#N)C#N)c1ccc(Oc2cccc(F)c2)nc1` [Compound 76, (6-(3-fluorophenoxy)pyridin-3-yl)(methyl)carbonohydrazonoyl dicyanide]: the remaining activity at 10 µM at tau protein amounted to 79.9%. Also, in the data set with Tau-BiFC cells, the “Cell viability (% @10 μM)” value turned out to be 121.7%.

For `N#CC(C#N)=NNc1ccc(OCc2ccc(C(F)(F)F)cc2)c(C(F)(F)F)c1` [Compound 98, (3-(trifluoromethyl)-4-(4-(trifluoromethyl)benzyloxy)phenyl)carbonohydrazonoyl dicyanide], on tau protein, the remaining activity at 10 µM came out at 0% and the half-maximal inhibitory concentration (IC50) was 0.25 µM. In addition, the “Cell viability (% @10 μM)” value in the data set with Tau-BiFC cells is on record as 26.9%.

With `N#CC(C#N)=NNc1ccc(Oc2ccc(C#N)cc2)cc1` [Compound 87, (4-(4-cyanophenoxy)phenyl)carbonohydrazonoyl dicyanide], on tau protein, the remaining activity at 10 µM came out at 0% and the IC50 came out at 1.22 µM. Also, the “Cell viability (% @10 μM)” value in the data set on Tau-BiFC cells worked out at 39.4%.

For the compound `N#CC(C#N)=NNc1ccc(OCc2nc3ccccc3s2)cc1` [Compound 129, (4-(benzo[d]thiazol-2-ylmethoxy)phenyl)carbonohydrazonoyl dicyanide], at tau protein, the remaining activity at 10 µM was 0% and it took 0.2 µM to reach half-maximal inhibition (IC50). Also, the “Cell viability (% @10 μM)” value in the data set with Tau-BiFC cells was determined as 106.9%.

Source of the values: patent US12649723B2, “Carbonohydrazonoyl dicyanide compounds comprising 2 or more aryl or heteroaryl connected via linker and use thereof” (KOREA INSTITUTE OF SCIENCE AND TECHNOLOGY, priority 2020, dated 2026).
